Laboratory results published in ChEMBL document CHEMBL5236651, “Synthesis and antibacterial activity of novel 2‑fluoro ketolide antibiotics with 11,12‑quinoylalkyl side chains” (2023).
Converted amounts (≈) assume the structure as drawn.

Tests used:
Type in all cases: functional
[1] = test system: Klebsiella pneumoniae; experiment: Antibacterial activity against ESBL positive Klebsiella pneumoniae ATCC 700603 assessed as inhibition of bacterial growth by CLSI based micro broth double dilution method
[2] = test system: Streptococcus pneumoniae; experiment: Antibacterial activity against erythromycin-sensitive Streptococcus pneumoniae ATCC 49619 assessed as inhibition of bacterial growth by CLSI based micro broth double dilution method
[3] = test system: Escherichia coli; experiment: Antibacterial activity against Escherichia coli 16-7 assessed as inhibition of bacterial growth by CLSI based micro broth double dilution method
[4] = test system: Staphylococcus epidermidis; experiment: Antibacterial activity against methicillin-sensitive Staphylococcus epidermidis ATCC 12228 assessed as inhibition of bacterial growth by CLSI based micro broth double dilution method
[5] = test system: Escherichia coli; experiment: Antibacterial activity against ESBL-negative Escherichia coli ATCC 25922 assessed as inhibition of bacterial growth by CLSI based micro broth double dilution method
[6] = test system: Staphylococcus epidermidis; experiment: Antibacterial activity against methicillin-sensitive Staphylococcus epidermidis 16-4 assessed as inhibition of bacterial growth by CLSI based micro broth double dilution method
[7] = test system: Escherichia coli; experiment: Antibacterial activity against ESBL-positive Escherichia coli ATCC 35218 assessed as inhibition of bacterial growth by CLSI based micro broth double dilution method
[8] = test system: Pseudomonas aeruginosa; experiment: Antibacterial activity against Pseudomonas aeruginosa 16-11 assessed as inhibition of bacterial growth by CLSI based micro broth double dilution method
[9] = test system: Staphylococcus aureus; experiment: Antibacterial activity against methicillin-sensitive Staphylococcus aureus 15 assessed as inhibition of bacterial growth by CLSI based micro broth double dilution method
[10] = test system: Staphylococcus aureus; experiment: Antibacterial activity against methicillin-sensitive Staphylococcus aureus ATCC 29213 assessed as inhibition of bacterial growth by CLSI based micro broth double dilution method
[11] = test system: Streptococcus pneumoniae; experiment: Antibacterial activity against erythromycin-resistant Streptococcus pneumoniae 12-3 assessed as inhibition of bacterial growth by CLSI based micro broth double dilution method
[12] = test system: Enterococcus faecalis; experiment: Antibacterial activity against vancomycin-resistant Enterococcus faecalis ATCC 51575 assessed as inhibition of bacterial growth by CLSI based micro broth double dilution method
[13] = test system: Streptococcus pyogenes; experiment: Antibacterial activity against erythromycin-resistant Streptococcus pyogenes 12-1 assessed as inhibition of bacterial growth by CLSI based micro broth double dilution method
[14] = test system: Enterococcus faecalis; experiment: Antibacterial activity against vancomycin-resistant Enterococcus faecalis ATCC 51299 assessed as inhibition of bacterial growth by CLSI based micro broth double dilution method
[15] = test system: Pseudomonas aeruginosa; experiment: Antibacterial activity against Pseudomonas aeruginosa ATCC 27853 assessed as inhibition of bacterial growth by CLSI based micro broth double dilution method
[16] = test system: Klebsiella pneumoniae; experiment: Antibacterial activity against ESBL negative Klebsiella pneumoniae 7 assessed as inhibition of bacterial growth by CLSI based micro broth double dilution method
[17] = test system: Enterococcus faecalis; experiment: Antibacterial activity against vancomycin-sensitive Enterococcus faecalis 16-6 assessed as inhibition of bacterial growth by CLSI based micro broth double dilution method
[18] = test system: Streptococcus pyogenes; experiment: Antibacterial activity against erythromycin-sensitive Streptococcus pyogenes ATCC 19615 assessed as inhibition of bacterial growth by CLSI based micro broth double dilution method
[19] = test system: Enterococcus faecalis; experiment: Antibacterial activity against vancomycin-sensitive Enterococcus faecalis […] assessed as inhibition of bacterial growth by CLSI based micro broth double dilution method
[20] = test system: Klebsiella pneumoniae; experiment: Antibacterial activity against ESBL negative Klebsiella pneumoniae 16-2 assessed as inhibition of bacterial growth by CLSI based micro broth double dilution method
[21] = test system: Staphylococcus aureus; experiment: Antibacterial activity against methicillin-sensitive Staphylococcus aureus 16-1 assessed as inhibition of bacterial growth by CLSI based micro broth double dilution method
[22] = test system: Pseudomonas aeruginosa; experiment: Antibacterial activity against Pseudomonas aeruginosa PAO1 assessed as inhibition of bacterial growth by CLSI based micro broth double dilution method

| SMILES | MIC [1] | MIC [2] | MIC [3] | MIC [4] | MIC [5] | MIC [6] | MIC [7] | MIC [8] | MIC [9] | MIC [10] | MIC [11] | MIC [12] | MIC [13] | MIC [14] | MIC [15] | MIC [16] | MIC [17] | MIC [18] | MIC [19] | MIC [20] | also measured |
| --- | --- | --- | --- | --- | --- | --- | --- | --- | --- | --- | --- | --- | --- | --- | --- | --- | --- | --- | --- | --- | --- |
| CC[C@H]1OC(=O)[C@@](C)(F)C(=O)[C@H](C)[C@@H](O[C@@H]2O[C@H](C)C[C@H](N(C)C)[C@H]2O)[C@@](C)(OC)C[C@@H](C)C(=O)[C@H](C)[C@H]2N(CCCN(C)c3ccnc4ccccc34)C(=O)O[C@]12C | > 32 µg/mL | 0.03 µg/mL (≈ 0.0362 µM) | > 32 µg/mL | 0.25 µg/mL (≈ 0.302 µM) | > 32 µg/mL | 2 µg/mL (≈ 2.41 µM) | > 32 µg/mL | > 32 µg/mL | 0.5 µg/mL (≈ 0.603 µM) | 0.5 µg/mL (≈ 0.603 µM) | 0.12 µg/mL (≈ 0.145 µM) | > 32 µg/mL | > 32 µg/mL | > 32 µg/mL | > 32 µg/mL | > 32 µg/mL | > 32 µg/mL | 0.03 µg/mL (≈ 0.0362 µM) | 0.25 µg/mL (≈ 0.302 µM) | > 32 µg/mL | MIC [21]: 0.5 µg/mL (≈ 0.603 µM); MIC [22]: > 32 µg/mL |
| CC[C@H]1OC(=O)[C@@](C)(F)C(=O)[C@H](C)[C@@H](O[C@@H]2O[C@H](C)C[C@H](N(C)C)[C@H]2O)[C@@](C)(OC)C[C@@H](C)C(=O)[C@H](C)[C@H]2N(CCCOc3ccnc4ccccc34)C(=O)O[C@]12C | > 32 µg/mL | 0.25 µg/mL (≈ 0.306 µM) | > 32 µg/mL | 0.5 µg/mL (≈ 0.613 µM) | > 32 µg/mL | 1 µg/mL (≈ 1.23 µM) | > 32 µg/mL | > 32 µg/mL | 1 µg/mL (≈ 1.23 µM) | 1 µg/mL (≈ 1.23 µM) | 32 µg/mL (≈ 39.2 µM) | > 32 µg/mL | 16 µg/mL (≈ 19.6 µM) | > 32 µg/mL | > 32 µg/mL | > 32 µg/mL | > 32 µg/mL | 0.25 µg/mL (≈ 0.306 µM) | 0.5 µg/mL (≈ 0.613 µM) | > 32 µg/mL | MIC [21]: 0.5 µg/mL (≈ 0.613 µM); MIC [22]: > 32 µg/mL |
| CC[C@H]1OC(=O)[C@@](C)(F)C(=O)[C@H](C)[C@@H](O[C@@H]2O[C@H](C)C[C@H](N(C)C)[C@H]2O)[C@@](C)(OC)C[C@@H](C)C(=O)[C@H](C)[C@H]2N(CCCN(C(=O)/C=C/c3ccccc3)c3ccnc4ccccc34)C(=O)O[C@]12C | 32 µg/mL (≈ 33.9 µM) | ≤ 0.016 µg/mL | > 32 µg/mL | 1 µg/mL (≈ 1.06 µM) | > 32 µg/mL | 1 µg/mL (≈ 1.06 µM) | > 32 µg/mL | > 32 µg/mL | 1 µg/mL (≈ 1.06 µM) | 1 µg/mL (≈ 1.06 µM) | 0.5 µg/mL (≈ 0.529 µM) | > 32 µg/mL | 8 µg/mL (≈ 8.46 µM) | > 32 µg/mL | > 32 µg/mL | > 32 µg/mL | > 32 µg/mL | 0.5 µg/mL (≈ 0.529 µM) | 0.5 µg/mL (≈ 0.529 µM) | > 32 µg/mL | MIC [21]: 0.5 µg/mL (≈ 0.529 µM); MIC [22]: > 32 µg/mL |
| CC[C@H]1OC(=O)[C@@](C)(F)C(=O)[C@H](C)[C@@H](O[C@@H]2O[C@H](C)C[C@H](N(C)C)[C@H]2O)[C@@](C)(OC)C[C@@H](C)C(=O)[C@H](C)[C@H]2N(CCCn3ccc(=O)c4ccccc43)C(=O)O[C@]12C | > 32 µg/mL | ≤ 0.016 µg/mL | > 32 µg/mL | 0.06 µg/mL (≈ 0.0735 µM) | 16 µg/mL (≈ 19.6 µM) | 0.25 µg/mL (≈ 0.306 µM) | > 32 µg/mL | > 32 µg/mL | 0.12 µg/mL (≈ 0.147 µM) | 0.12 µg/mL (≈ 0.147 µM) | 0.25 µg/mL (≈ 0.306 µM) | > 32 µg/mL | > 32 µg/mL | > 32 µg/mL | > 32 µg/mL | > 32 µg/mL | > 32 µg/mL | 0.03 µg/mL (≈ 0.0368 µM) | 0.06 µg/mL (≈ 0.0735 µM) | > 32 µg/mL | MIC [21]: 0.12 µg/mL (≈ 0.147 µM); MIC [22]: > 32 µg/mL |
